# Test results: patent US5294603A, “Pharmaceutical compositions containing didemnins” (The Board of Trustees of The University of Illinois, priority 1992, dated 1994)
# Entries after “also recorded” stand apart in the source; their conditions may differ. Where two headings read alike, the source gives them in different places. Numbered stars: 1 amine (or outer) side, 2 acyl side, 3 side chain; on linkers, the order of the positions; unused ones are H or OH. Bridge positions count the residues as written; N and C are the ends. Square brackets hold non-standard residues; d marks the D form. Peptide text beside a SMILES is read from it. * marks the point of attachment. X14 = CC[C@H](C)[C@@H](N[*:1])[C@@H](O)CC(=O)O[C@@H](C(C)C)[C@@H](O)[C@H](C)C(=O)[*:2]; X4 = CC[C@H](C)[C@@H](N[*:1])[C@@H](O)CC(=O)O[C@@H](C(=O)[C@H](C)C(=O)[*:2])C(C)C; X1 = CC[C@H](C)[C@@H](N[*:1])[C@@H](O)CC(=O)O[C@H](C(=O)[C@H](C)C(=O)[*:2])C(C)C; NMeY = CN[C@@H](Cc1ccc(O)cc1)C(=O)O; dNMeL = CN[C@H](CC(C)C)C(=O)O; Isobutyryl = CC(C)C(=O)*; Pyruvoyl = CC(=O)C(=O)*
# Columns and labels:
# [1] = tested on: HSV-1; assay type: cell-based, Herpes simplex virus Type I
# [2] = tested on: Visna virus (VIV); assay type: cell-based
# [3] = tested on: Nb2 cells, rat T-cell node lymphoma; test: Competitive binding with [3H]didemnin B to Nb2 cells; conditions: 3 h at 37° C.
# Description: The immunosuppressive assay was performed by measuring competitive binding of tested compounds with [^3 H]didemnin B to Nb2 cells, rat T-cell node lymphoma. See, Russell, D. H., et al., J. Immunology, 1987, 138, 276-284.
# ^a Competing didemnins incubated with approximately 25 ng of [^3
# [4] = tested on: BHK = Baby hamster kidney cells
# [5] = tested on: L1210 murine leukemia cells; conditions: Table 9
# [6] = tested on: L1210; test: L1210 cytotoxicity, inhibition at fixed doses (Table 10); assay type: cell-based, murine; conditions: tested 4/18/1991
# [7] = tested on: DNA synthesis in Nb2 node lymphoma cells; test: Inhibition of ongoing DNA synthesis in prolactin-stimulated Nb2 cells; assay type: cell-based, rat; conditions: Nb2 cells stimulated with prolactin for 24 h
# Description: (§1) Also inhibitions of protein and DNA synthesis of several compounds were measured using Nb2 node lymphoma cells which were stimulated by a treatment of cells with prolactin. (ibid.)
# (§2) ^a Nb2 cells were stimulated with prolactin for 24 h, then exposed to
# (§3) ^b 50% Inhibitory concentration, calculated with linear regression
# [8] = tested on: Protein synthesis in Nb2 node lymphoma cells; test: Inhibition of ongoing protein synthesis in prolactin-stimulated Nb2 cells; assay type: cell-based, rat; conditions: Nb2 cells stimulated with prolactin for 24 h
# Description: as §1, §2, §3
# [9] = tested on: CV-1 monkey kidney cells
# [10] = tested on: VSV; assay type: cell-based, vesicular stomatitis virus
# [11] = tested on: L1210 cells
# [12] = earlier work of Gloer; cited from earlier work
# [13] = earlier work, Rinehart et al. 1988; cited from earlier work
# [14] = tested on: P388 murine lymphoma; test: In vivo antitumor activity, P388; set-up: species or system mice; conditions: for T/C (treated/control): significant >125%
# Description: (§4) Compound 106 was prepared semisynthetically for in vivo antitumor testing in mice.
# (§5) ^b Schedule 1-9 days i. p.
# ^d P388 murine lymphoma. Median survival of control mice, 10.0 days.
# [15] = tested on: B16 melanoma; test: In vivo antitumor activity, B16; set-up: species or system mice; conditions: for T/C (treated/control): significant >125%
# Description: as §4, §5
# ^e B16 melanoma. Median survival of control mice, 17.0 days.
# [16] = tested on: Lewis lung carcinoma; test: In vivo antitumor activity, Lewis lung; set-up: species or system mice
# Description: as §4, §5
# ^f Lewis lung carcinoma, median tumor volume of control mice 1372
smiles,measurement,setting,value
CC[C@H](C)[C@H]1NC(=O)[C@@H](NC(=O)[C@@H](CC(C)C)N(C)C(=O)[C@@H]2CCCN2C(=O)C(C)C)[C@@H](C)OC(=O)[C@H](Cc2ccc(OC)cc2)N(C)C(=O)[C@@H]2CCCN2C(=O)[C@H](CC(C)C)NC(=O)[C@@H](C)C(=O)[C@H](C(C)C)OC(=O)C[C@@H]1O [[Isobutyryl^9]didemnin B] (Isobutyryl-P[dNMeL]T[X1]LP[NMeY](Me); ester 3-C),HSV-1,[1],++ +
same,VIV Protection,[2],-93
same,Inhibition of [3H]didemnin B binding (%),[3]; 0.001 μg/mL,2%
same,Inhibition of [3H]didemnin B binding (%),[3]; 0.01 μg/mL,4%
same,Inhibition of [3H]didemnin B binding (%),[3]; 0.1 μg/mL,59%
same,Inhibition of [3H]didemnin B binding (%),[3]; 1 μg/mL,75%
same,BHK,[4],"0, PT"
same,Cytotoxicity L1210 IC50,[5],0.2 ng/mL
"CC[C@H](C)[C@@H](NC(=O)[C@@H](NC(=O)[C@@H](CC(C)C)NC)[C@@H](C)O)[C@@H](O)CC(=O)O[C@H](C(=O)[C@H](C)C(=O)N[C@@H](CC(C)C)C(=O)N1CCC[C@H]1C(=O)N(C)[C@@H](Cc1ccc(OC)cc1)C(=O)O)C(C)C [Acyclodidemnin A (16), Acyclodidemnin A] (H-[dNMeL]T[X1]LP[NMeY](Me)-OH)",Inhibition (%),[6]; dose 25 ng/mL,25%
same,Inhibition (%),[6]; dose 250 ng/mL,99%
same,Inhibition of [3H]didemnin B binding (%),[3]; 0.001 μg/mL,0%
same,Inhibition of [3H]didemnin B binding (%),[3]; 0.01 μg/mL,7%
same,Inhibition of [3H]didemnin B binding (%),[3]; 0.1 μg/mL,6%
same,Inhibition of [3H]didemnin B binding (%),[3]; 1 μg/mL,8%
same,IC50 DNA,[7],inactive (1 g)
same,IC50 Protein,[8],inactive (1 g)
same,CV-1,[9],0
same,Cytotoxicity L1210 IC50,[5],30 ng/mL
"CC[C@H](C)[C@H]1NC(=O)[C@@H](NC(=O)[C@@H](CC(C)C)N(C)C(=O)[C@H]2CCCN2C(=O)C(C)=O)[C@@H](C)OC(=O)[C@H](Cc2ccc(OC)cc2)N(C)C(=O)[C@@H]2CCCN2C(=O)[C@H](CC(C)C)NC(=O)[C@@H](C)C(=O)[C@H](C(C)C)OC(=O)C[C@@H]1O [Pyruv-D-Pro-DA, Pyruv-D-Pro Didemnin A] (Pyruvoyl-[dP][dNMeL]T[X1]LP[NMeY](Me); ester 3-C)",VSV,[10],+ ++
same,IC50,[11],6 ng/mL
same,cytotoxicity compared with DDB,[11],only partially active
"CC[C@H](C)[C@H]1NC(=O)[C@@H](NC(=O)[C@@H](CC(C)C)NC)[C@@H](C)OC(=O)[C@H](Cc2ccc(OC)cc2)N(C)C(=O)[C@@H]2CCCN2C(=O)[C@H](CC(C)C)NC(=O)[C@@H](C)[C@H](O)[C@H](C(C)C)OC(=O)C[C@@H]1O [[Dihydro(2S,3S,4S)Hip^2]didemnin A, reference compound] (H-[dNMeL]T[X14]LP[NMeY](Me); ester 2-C)",cytotoxicity compared with Compound 1,[12],weaker cytotoxicity than Compound 1
"CC[C@H](C)[C@@H]1NC(=O)[C@@H](NC(=O)[C@H](CC(C)C)N(C)C(C)=O)[C@H](C)OC(=O)[C@H](Cc2ccc(OC)cc2)N(C)C(=O)[C@@H]2CCCN2C(=O)[C@H](CC(C)C)NC(=O)[C@@H](C)C(=O)[C@H](C(C)C)OC(=O)C[C@@H]1OC(C)=O [Diacetyldidemnin A (32), N,O-Diacetyldidemnin A]",VIV Protection,"[2]; Table 9, 0.1 μg/mL",< 0%
same,Cytotoxicity L1210 IC50,[5],15 ng/mL
same,cytotoxicity compared with Compound 1,[12],weaker cytotoxicity than Compound 1
same,antiviral activity (in vitro),[13],improvement of the antiviral activity
"CC[C@H](C)[C@H]1NC(=O)[C@@H](NC(=O)[C@@H](CC(C)C)N(C)C(=O)[C@@H]2CCCN2C(=O)[C@H](C)O)[C@@H](C)OC(=O)[C@H](Cc2ccc(O)cc2)NC(=O)[C@@H]2CCCN2C(=O)[C@H](CC(C)C)NC(=O)[C@@H](C)C(=O)[C@H](C(C)C)OC(=O)C[C@@H]1O [Didemnin N (13), Didemnin N]",Inhibition of [3H]didemnin B binding (%),[3]; 0.001 μg/mL,3%
same,Inhibition of [3H]didemnin B binding (%),[3]; 0.01 μg/mL,6%
same,Inhibition of [3H]didemnin B binding (%),[3]; 0.1 μg/mL,4%
same,Inhibition of [3H]didemnin B binding (%),[3]; 1 μg/mL,10%
same,IC50 DNA,[7],"200,000 ng/mL"
same,CV-1,[9],0
same,Cytotoxicity L1210 IC50,[5],30 ng/mL
"CC[C@H](C)[C@H]1NC(=O)[C@@H](NC(=O)[C@@H](CC(C)C)N(C)C(=O)[C@@H]2CCCN2C(=O)C(C)=O)[C@@H](C)OC(=O)[C@H](Cc2ccc(OC)cc2)N(C)C(=O)[C@@H]2CCCN2C(=O)[C@H](CC(C)C)NC(=O)[C@@H](C)C(=O)[C@H](C(C)C)OC(=O)C[C@@H]1O [[Pyruvyl^9]Didemnin B (106), Dehydrodidemnin B] (Pyruvoyl-P[dNMeL]T[X1]LP[NMeY](Me); ester 3-C)",antiviral activity against VSV,[10],high order
same,HSV-1,[1],+ +
same,antiviral activity against HSV-1,[1],several times more active than DB; also recorded: high order
same,VIV Protection,[2],-92
same,activity against VIV,[2],completely inactive
same,Alive (day 23),"[14]; P388, 80 μg/kg/day",0
same,Median Survival,"[14]; P388, 80 μg/kg/day",19.5 days
same,Body wt. chenge.,"[14]; P388, 80 μg/kg/day i. p. days 1-9",-1.4 g
same,T/C (treated/control),"[14]; P388, 80 μg/kg/day",195%
same,Alive (day 23),"[14]; P388, 160 μg/kg/day",0
same,Median Survival,"[14]; P388, 160 μg/kg/day",21.0 days
same,Body wt. chenge.,"[14]; P388, 160 μg/kg/day i. p. days 1-9",-3.2 g
same,T/C (treated/control),"[14]; P388, 160 μg/kg/day",210%
same,Alive (day 23),"[14]; P388, 320 μg/kg/day",0
same,Median Survival,"[14]; P388, 320 μg/kg/day",6.0 days
same,Body wt. chenge.,"[14]; P388, 320 μg/kg/day i. p. days 1-9",-3.3 g
same,T/C (treated/control),"[14]; P388, 320 μg/kg/day",60%
same,Alive (day 24),"[15]; B16, 40 μg/kg/day",0
same,Median Survival,"[15]; B16, 40 μg/kg/day",30 days
same,Body wt. chenge.,"[15]; B16, 40 μg/kg/day i. p. days 1-9",0.1 g
same,T/C (treated/control),"[15]; B16, 40 μg/kg/day",178%
same,Alive (day 24),"[15]; B16, 80 μg/kg/day",0
same,Median Survival,"[15]; B16, 80 μg/kg/day",32 days
same,Body wt. chenge.,"[15]; B16, 80 μg/kg/day i. p. days 1-9",-0.5 g
same,T/C (treated/control),"[15]; B16, 80 μg/kg/day",188%
same,Alive (day 24),"[15]; B16, 160 μg/kg/day",0
same,Median Survival,"[15]; B16, 160 μg/kg/day",37 days
same,Body wt. chenge.,"[15]; B16, 160 μg/kg/day i. p. days 1-9",-1.3 g
same,T/C (treated/control),"[15]; B16, 160 μg/kg/day",218%
same,Median Tumor Vol.,[16]; 40 μg/kg/day,473 mm^3
same,"N. P. (Day 14), number of nonpalpable tumors",[16]; 40 μg/kg/day,0
same,Body Wt. Chenge.,[16]; 40 μg/kg/day i. p. days 1-9,-2.6 g
same,Median Tumor Vol.,[16]; 80 μg/kg/day,163 mm^3
same,"N. P. (Day 14), number of nonpalpable tumors",[16]; 80 μg/kg/day,2
same,Median Tumor Vol.,[16]; 160 μg/kg/day,0 mm^3
same,"N. P. (Day 14), number of nonpalpable tumors",[16]; 160 μg/kg/day,5
same,Body Wt. Chenge.,[16]; 160 μg/kg/day i. p. days 1-9,-3.7 g
same,IC50,[11],0.2 ng/mL
same,cytotoxic activity against L1210,[11],several times more active than DB
same,Cytotoxicity L1210 IC50,[5],0.2 ng/mL
"CC[C@H](C)[C@H]1NC(=O)[C@@H](NC(=O)[C@@H](CC(C)C)NC)[C@@H](C)OC(=O)[C@H](Cc2ccc(OC)cc2)N(C)C(=O)[C@@H]2CCCN2C(=O)[C@H](CC(C)C)NC(=O)[C@@H](C)C(=O)[C@@H](C(C)C)OC(=O)C[C@@H]1O [Epididemnin A (15), Epididemnin A] (H-[dNMeL]T[X4]LP[NMeY](Me); ester 2-C)",VIV Protection,[2],< 0
same,Inhibition of [3H]didemnin B binding (%),[3]; 0.001 μg/mL,0%
same,Inhibition of [3H]didemnin B binding (%),[3]; 0.01 μg/mL,3%
same,Inhibition of [3H]didemnin B binding (%),[3]; 0.1 μg/mL,9%
same,Inhibition of [3H]didemnin B binding (%),[3]; 1 μg/mL,12%
same,IC50 DNA,[7],inactive (1 g)
same,CV-1,[9],0
same,Cytotoxicity L1210 IC50,[5],300 ng/mL
